Results on 30 compounds are retold here after patent US9108963B2, “Pyrazolopyridine, pyrazolopyrazine, pyrazolopyrimidine, pyrazolothiophene and pyrazolothiazole compounds as MGLUR4 allosteric potentiators, compositions, and methods of treating neurological dysfunction” (Vanderbilt University, priority 2010, dated 2015).

Like-named read-outs stand apart in the source and are kept apart here.

Usually EC50 stands for the midpoint of the concentration-response curve. One may read the IC50 as the concentration needed to halve the response being measured.

One assay deals with mGluR4 (UniProt Q14833). Briefly: mGluR4 potentiation assay (Ca2+ or thallium flux fluorescence, agonist EC20). Format: cell-based, human or rat. The procedure:
The disclosed compounds and compositions can be evaluated for their ability to act as a potentiator of metabotropic glutamate receptor activity, in particular mGluR4 activity, by any suitable known methodology known in the art. For example, Chinese Hamster Ovary (CHO) cells transfected with human mGluR4 or HEK cells co-transfected with rat mGluR4 and the G-protein regulated Inwardly Rectifying Potassium channel (GIRK) were plated in clear bottom assay plates for assay in a Hamamatsu FDSS Fluorometric Plate Reader. The cells were loaded with either a Ca2+-sensitive fluorescent dye or the thallium responsive dye and the plates were washed and placed into a suitable kinetic plate reader. For human mGluR4 assays, a fluorescence baseline was established for 3-5 seconds, the disclosed compounds were then added to the cells, and the response in cells was measured. Approximately two and a half minutes later, a concentration of mGluR4 orthosteric agonist (e.g. glutamate or L-AP4) eliciting approximately 20% (EC20) of the maximal agonist response was added to the cells, and the response was measured. Two minutes later, a concentration of mGluR4 agonist (e.g. glutamate or L-AP4) eliciting 80% (EC80) of the maximal agonist response was added to the cells, and the response was measured. For rat mGluR4/GIRK experiments, a baseline was established for approximately five seconds, disclosed compounds were added, and either an EC20 or EC80 concentration of agonist was added approximately two and one half minutes later.
The above described assay operated in two modes. In the first mode, a range of concentrations of the disclosed compounds are added to cells, followed by a single fixed concentration of agonist. If the compound acts as a potentiator, an EC50 value for potentiation and a maximum extent of potentiation by the compound at this concentration of agonist is determined by non-linear curve fitting. If the compound acts as a noncompetitive antagonist, an IC50 value is determined by non-linear curve fitting. In the second mode, several fixed concentrations of the disclosed compounds are added to various wells on a plate, followed by a range in concentrations of agonist for each concentration of disclosed compound. The EC50 values for the agonist at each concentration of compound are determined by non-linear curve fitting. A decrease in the EC50 value of the agonist with increasing concentrations of the sample compound (a leftward shift of the agonist concentration-response curve) is an indication of the degree of mGluR4 potentiation at a given concentration of the sample compound. A decrease in the maximal response of the agonist with increasing concentrations of the sample compounds, with or without a rightward shift in agonist potency, is an indication of the degree of noncompetitive antagonism at mGluR4. The second mode also indicates whether the sample compounds also affect the maximum response to mGluR4 to agonists.

The target in the next assay is T1, mGluR5 (Rattus norvegicus, UniProt P31424).
T1 construct: expressed in transfected cells; host or cells: human embryonic kidney (HEK) cells
T1 sequence (P31424 21-1203): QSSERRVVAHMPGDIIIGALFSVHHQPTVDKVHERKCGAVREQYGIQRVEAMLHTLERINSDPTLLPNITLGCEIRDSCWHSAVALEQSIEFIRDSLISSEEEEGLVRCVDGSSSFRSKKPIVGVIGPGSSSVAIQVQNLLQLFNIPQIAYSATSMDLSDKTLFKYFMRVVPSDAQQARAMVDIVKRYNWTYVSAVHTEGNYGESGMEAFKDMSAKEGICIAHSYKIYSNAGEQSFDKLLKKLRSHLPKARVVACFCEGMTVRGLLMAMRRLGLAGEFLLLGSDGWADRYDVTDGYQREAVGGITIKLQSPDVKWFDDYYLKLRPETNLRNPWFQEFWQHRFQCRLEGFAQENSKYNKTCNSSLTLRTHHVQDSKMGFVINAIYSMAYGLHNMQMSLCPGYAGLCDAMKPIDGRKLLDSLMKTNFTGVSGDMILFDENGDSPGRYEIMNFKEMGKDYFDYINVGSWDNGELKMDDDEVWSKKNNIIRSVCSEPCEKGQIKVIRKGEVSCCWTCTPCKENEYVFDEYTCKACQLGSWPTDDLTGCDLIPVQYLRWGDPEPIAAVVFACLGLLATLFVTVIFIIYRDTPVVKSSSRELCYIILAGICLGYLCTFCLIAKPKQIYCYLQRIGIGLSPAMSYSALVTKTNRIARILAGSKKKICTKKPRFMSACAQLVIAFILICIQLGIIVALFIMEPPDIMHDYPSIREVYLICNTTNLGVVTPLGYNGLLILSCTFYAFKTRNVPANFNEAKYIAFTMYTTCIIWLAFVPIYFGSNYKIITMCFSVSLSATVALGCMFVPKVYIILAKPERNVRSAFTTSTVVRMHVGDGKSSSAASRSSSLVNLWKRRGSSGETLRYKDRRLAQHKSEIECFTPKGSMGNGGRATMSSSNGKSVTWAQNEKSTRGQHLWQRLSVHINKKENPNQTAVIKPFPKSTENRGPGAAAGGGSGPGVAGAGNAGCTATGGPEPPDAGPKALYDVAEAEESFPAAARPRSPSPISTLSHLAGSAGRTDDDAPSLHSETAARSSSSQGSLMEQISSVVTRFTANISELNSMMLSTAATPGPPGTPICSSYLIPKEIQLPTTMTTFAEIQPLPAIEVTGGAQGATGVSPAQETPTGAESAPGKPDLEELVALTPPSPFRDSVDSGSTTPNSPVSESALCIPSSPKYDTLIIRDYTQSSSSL
As to the kind of experiment: mGluR5 negative allosteric modulation, decrease in response to non-maximal glutamate in HEK cells. Type of assay: cell-based. To be noted: Table 3; read-out: mGlu5 IC50. The text has this:
Embodiments of the present invention are also mGluR5 negative allosteric modulators. Accordingly, in one aspect, the invention relates to compounds that are also useful as negative allosteric modulators of the metabotropic glutamate receptor subtype 5 (mGluR5). Negative allosteric modulators are non-competitive antagonists and can include a range of maximal antagonist activity from partial antagonists to inverse agonists. In one aspect, the present invention relates to compounds that allosterically modulate mGluR5 receptor activity, affecting the sensitivity of mGluR5 receptors to agonists without acting as orthosteric agonists themselves. […] The compounds of the invention can be useful in the treatment neurological and psychiatric disorders associated with glutamate dysfunction and other diseases in which metabotropic glutamate receptors are involved, as further described herein. […] In further aspect, the human embryonic kidney cells are transfected with human mGluR5. In yet a further aspect, human embryonic kidney cells are transfected with mGluR5 of a mammal.
In further aspect, the human embryonic kidney cells are transfected with human mGluR5. In yet a further aspect, human embryonic kidney cells are transfected with mGluR5 of a mammal.

[1] abbreviates: Table 2, potentiation of mGluR4 agonist response, read-out: EC50.

For the compound `FC(F)(F)c1ccnc(Oc2ccc(Nc3n[nH]c4cccnc34)cc2Cl)c1` [Example 97, N-(3-chloro-4-((4-(trifluoromethyl)pyridin-2-yl)oxy)phenyl)-1H-pyrazolo[4,3-b]pyridin-3-amine], the EC50 on mGluR4 (setting [1]) worked out at 497 nM. In the case of `Fc1cccnc1Oc1ccc(Nc2n[nH]c3cccnc23)cc1Cl` [Example 98, N-(3-chloro-4-((3-fluoropyridin-2-yl)oxy)phenyl)-1H-pyrazolo[4,3-b]pyridin-3-amine], the EC50 at mGluR4 (setting [1]) worked out at 635 nM. On the same count and under the same terms, the same measure for `Fc1ccccc1COc1ccc(Nc2n[nH]c3cccnc23)cc1Cl` [Example 99]: 180 nM; for `CC(Oc1ccc(Nc2n[nH]c3cccnc23)cc1Cl)c1ccccc1` (stereo not shown) [Example 100, N-(3-chloro-4-(1-phenylethoxy)phenyl)-1H-pyrazolo[4,3-b]pyridin-3-amine]: 1600 nM.

On to `Clc1cc(Nc2n[nH]c3cccnc23)ccc1OCc1ccncc1` [Example 101, N-(3-chloro-4-(pyridin-4-ylmethoxy)phenyl)-1H-pyrazolo[4,3-b]pyridin-3-amine], for which the EC50 at mGluR4 (setting [1]) was 270 nM. As for `Clc1cc(Nc2n[nH]c3cccnc23)ccc1OCc1cccnc1` [Example 102, N-(3-chloro-4-(pyridin-3-ylmethoxy)phenyl)-1H-pyrazolo[4,3-b]pyridin-3-amine], the EC50 at mGluR4 (setting [1]) was 400 nM.

For `Clc1cc(Nc2n[nH]c3cccnc23)ccc1OCc1nccs1` [Example 103, N-(3-chloro-4-(thiazol-2-ylmethoxy)phenyl)-1H-pyrazolo[4,3-b]pyridin-3-amine], the EC50 at mGluR4 (setting [1]) was 360 nM. Same read-out and setting: the value for `Clc1ccccc1COc1ccc(Nc2n[nH]c3cccnc23)cc1Cl` [Example 104] was 1500 nM; that for `Clc1cc(Nc2n[nH]c3cccnc23)ccc1OCC1CCCC1` [Example 105, N-(3-chloro-4-(cyclopentylmethoxy)phenyl)-1H-pyrazolo[4,3-b]pyridin-3-amine] was 400 nM. Take `Clc1cc(Nc2n[nH]c3cccnc23)ccc1OC1CCCCC1` [Example 106, N-(3-chloro-4-(cyclohexyloxy)phenyl)-1H-pyrazolo[4,3-b]pyridin-3-amine]: the EC50 on mGluR4 (setting [1]) was found to be 470 nM.

In the case of `C[C@H](Oc1ccc(Nc2n[nH]c3cccnc23)cc1Cl)c1ccccn1` [Example 107, (S)-N-(3-chloro-4-(1-(pyridin-2-yl)ethoxy)phenyl)-1H-pyrazolo[4,3-b]pyridin-3-amine], the EC50 on mGluR4 (setting [1]) stood at 610 nM. The same measure, in the same setting: the same measure for `Clc1cc(Nc2n[nH]c3cccnc23)ccc1OCc1ncccn1` [Example 108, N-(3-chloro-4-(pyrimidin-2-ylmethoxy)phenyl)-1H-pyrazolo[4,3-b]pyridin-3-amine]: 1190 nM; for `Clc1cc(Nc2n[nH]c3cccnc23)ccc1OC1CCCc2cccnc21` (stereo not shown) [Example 109, N-(3-chloro-4-((5,6,7,8-tetrahydroquinolin-8-yl)oxy)phenyl)-1H-pyrazolo[4,3-b]pyridin-3-amine]: 1000 nM; for `C[C@H](Oc1ccc(Nc2n[nH]c3cccnc23)cc1Cl)c1ccncc1` [Example 110, (S)-N-(3-chloro-4-(1-(pyridin-4-yl)ethoxy)phenyl)-1H-pyrazolo[4,3-b]pyridin-3-amine]: 1230 nM. On the same count and under the same terms, the value for `N#Cc1cncc(Oc2ccc(Nc3n[nH]c4cccnc34)cc2Cl)c1` [Example 111, 5-(4-((1H-pyrazolo[4,3-b]pyridin-3-yl)amino)-2-chlorophenoxy)nicotinonitrile] was 84.8 nM; that for `Fc1cncc(Oc2ccc(Nc3n[nH]c4cccnc34)cc2Cl)c1` [Example 112, N-(3-chloro-4-((5-fluoropyridin-3-yl)oxy)phenyl)-1H-pyrazolo[4,3-b]pyridin-3-amine] was 611 nM; that for `Cc1cc(Nc2n[nH]c3cccnc23)ccc1Oc1ncccn1` [Example 113, N-(3-methyl-4-(pyrimidin-2-yloxy)phenyl)-1H-pyrazolo[4,3-b]pyridin-3-amine] was 265 nM. With `Clc1cc(Nc2n[nH]c3cccnc23)ccc1Nc1ccccn1` [Example 114, 2-chloro-N4-(1H-pyrazolo[4,3-b]pyridin-3-yl)-N1-(pyridin-2-yl)benzene-1,4-diamine], on mGluR5, the IC50 came to 582 nM. In addition, the EC50 at mGluR4 (Table 3, read-out: mGlu4 EC50) was determined as 33.5 nM.

For `Clc1cc(Nc2n[nH]c3cccnc23)ccc1Nc1cc2ccccc2cn1` [Example 115, 2-chloro-N1-(isoquinolin-3-yl)-N4-(1H-pyrazolo[4,3-b]pyridin-3-yl)benzene-1,4-diamine], the EC50 on mGluR4 (Table 3, read-out: mGlu4 EC50) came out at 37.2 nM. Turning to `Clc1cccc(Nc2ccc(Nc3n[nH]c4cccnc34)cc2Cl)n1` [Example 116, 2-chloro-N1-(6-chloropyridin-2-yl)-N4-(1H-pyrazolo[4,3-b]pyridin-3-yl)benzene-1,4-diamine], at mGluR5, the IC50 worked out at 2430 nM. For the same compound, the EC50 at mGluR4 (Table 3, read-out: mGlu4 EC50) came out at 82.5 nM. For `Clc1cc(Nc2n[nH]c3cccnc23)ccc1Nc1cnccn1` [Example 117, 2-chloro-N1-(pyrazin-2-yl)-N4-(1H-pyrazolo[4,3-b]pyridin-3-yl)benzene-1,4-diamine] the same measures were 100 nM and 30.6 nM.

As for `Clc1cc(Nc2n[nH]c3cccnc23)ccc1Nc1ncccn1` [Example 118, 2-chloro-N4-(1H-pyrazolo[4,3-b]pyridin-3-yl)-N1-(pyrimidin-2-yl)benzene-1,4-diamine], the IC50 on mGluR5 worked out at 3600 nM. The EC50 on mGluR4 (Table 3, read-out: mGlu4 EC50) amounted to 43.9 nM.

On to `Cc1ccc(Nc2ccc(Nc3n[nH]c4cccnc34)cc2Cl)nc1` [Example 119, 2-chloro-N1-(5-methylpyridin-2-yl)-N4-(1H-pyrazolo[4,3-b]pyridin-3-yl)benzene-1,4-diamine], for which the IC50 on mGluR5 amounted to 590 nM. The EC50 on mGluR4 (Table 3, read-out: mGlu4 EC50) was 16.9 nM. For `Cc1cccc(Nc2ccc(Nc3n[nH]c4cccnc34)cc2Cl)n1` [Example 120, 2-chloro-N1-(6-methylpyridin-2-yl)-N4-(1H-pyrazolo[4,3-b]pyridin-3-yl)benzene-1,4-diamine], in that order: 550 nM and 31.5 nM. On to `FC(F)(F)c1ccnc(Nc2ccc(Nc3n[nH]c4cccnc34)cc2Cl)c1` [Example 121, 2-chloro-N4-(1H-pyrazolo[4,3-b]pyridin-3-yl)-N1-(4-(trifluoromethyl)pyridin-2-yl)benzene-1,4-diamine], for which the EC50 on mGluR4 (Table 3, read-out: mGlu4 EC50) came out at 56.9 nM.

Take `Clc1cc(Nc2n[nH]c3cccnc23)ccc1Nc1cnc2ccccc2c1` [Example 122, 2-chloro-N4-(1H-pyrazolo[4,3-b]pyridin-3-yl)-N1-(quinolin-3-yl)benzene-1,4-diamine]: the EC50 at mGluR4 (Table 3, read-out: mGlu4 EC50) turned out to be 162 nM. In the case of `COc1ccnc(Nc2ccc(Nc3n[nH]c4cccnc34)cc2Cl)n1` [Example 123, 2-chloro-N1-(4-methoxypyrimidin-2-yl)-N4-(1H-pyrazolo[4,3-b]pyridin-3-yl)benzene-1,4-diamine], the IC50 on mGluR5 turned out to be 670 nM. In addition, the EC50 on mGluR4 (Table 3, read-out: mGlu4 EC50) was found to be 25.5 nM. For the compound `Clc1cc(Nc2n[nH]c3cccnc23)ccc1Nc1ncc2ccccc2n1` [Example 125, 2-chloro-N4-(1H-pyrazolo[4,3-b]pyridin-3-yl)-N1-(quinazolin-2-yl)benzene-1,4-diamine], on mGluR4 (Table 3, read-out: mGlu4 EC50), the EC50 was determined as 21.6 nM. `Clc1cc(Nc2n[nH]c3cccnc23)ccc1Nc1nccc2cccnc12` [Example 128, 2-chloro-N1-(1,7-naphthyridin-8-yl)-N4-(1H-pyrazolo[4,3-b]pyridin-3-yl)benzene-1,4-diamine]: the EC50 at mGluR4 (Table 3, read-out: mGlu4 EC50) is 455 nM. Still for that read-out and setting: the value for `Cc1cc(Nc2n[nH]c3cccnc23)ccc1Nc1ncccn1` [Example 130, 2-methyl-N4-(1H-pyrazolo[4,3-b]pyridin-3-yl)-N1-(pyrimidin-2-yl)benzene-1,4-diamine] was 235 nM.
